Tests used:
[1] = biological target: T1, Muscarinic acetylcholine receptor M1 (Rattus norvegicus, UniProt P08482)
T1 sequence (P08482 whole entry): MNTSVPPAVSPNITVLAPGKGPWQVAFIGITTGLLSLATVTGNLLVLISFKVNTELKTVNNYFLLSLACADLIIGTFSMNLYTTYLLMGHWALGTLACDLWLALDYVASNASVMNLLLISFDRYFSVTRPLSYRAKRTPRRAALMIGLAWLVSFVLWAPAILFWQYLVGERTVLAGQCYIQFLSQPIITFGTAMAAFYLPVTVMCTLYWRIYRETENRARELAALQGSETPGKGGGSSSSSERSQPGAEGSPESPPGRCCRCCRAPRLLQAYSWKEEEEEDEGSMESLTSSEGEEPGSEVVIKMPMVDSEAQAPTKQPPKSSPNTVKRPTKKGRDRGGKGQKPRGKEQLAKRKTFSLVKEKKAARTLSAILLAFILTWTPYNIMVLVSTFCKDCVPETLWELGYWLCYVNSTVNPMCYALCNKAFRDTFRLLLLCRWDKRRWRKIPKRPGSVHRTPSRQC

[2] = biological target: Muscarinic acetylcholine receptor M3 (Rattus norvegicus, UniProt P08483)
[3] = biological target: T2, Muscarinic acetylcholine receptor M5 (Homo sapiens, UniProt P08912)
T2 sequence (P08912 whole entry): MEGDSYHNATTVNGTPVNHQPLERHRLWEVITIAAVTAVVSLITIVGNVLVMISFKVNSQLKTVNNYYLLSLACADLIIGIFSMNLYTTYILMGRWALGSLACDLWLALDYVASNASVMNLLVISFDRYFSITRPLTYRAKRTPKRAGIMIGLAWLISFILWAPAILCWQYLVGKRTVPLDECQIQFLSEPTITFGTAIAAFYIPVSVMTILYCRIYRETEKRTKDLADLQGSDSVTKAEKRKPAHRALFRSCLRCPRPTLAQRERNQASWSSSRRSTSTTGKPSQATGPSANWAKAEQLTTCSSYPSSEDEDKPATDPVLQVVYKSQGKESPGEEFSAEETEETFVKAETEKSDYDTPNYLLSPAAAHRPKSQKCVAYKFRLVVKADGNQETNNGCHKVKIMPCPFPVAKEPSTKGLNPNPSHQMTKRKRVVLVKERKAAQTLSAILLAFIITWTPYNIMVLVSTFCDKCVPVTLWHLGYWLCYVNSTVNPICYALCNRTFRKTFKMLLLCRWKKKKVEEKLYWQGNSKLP

[4] = biological target: T3, Muscarinic acetylcholine receptor M4 (Homo sapiens, UniProt P08173)
T3 sequence (P08173 whole entry): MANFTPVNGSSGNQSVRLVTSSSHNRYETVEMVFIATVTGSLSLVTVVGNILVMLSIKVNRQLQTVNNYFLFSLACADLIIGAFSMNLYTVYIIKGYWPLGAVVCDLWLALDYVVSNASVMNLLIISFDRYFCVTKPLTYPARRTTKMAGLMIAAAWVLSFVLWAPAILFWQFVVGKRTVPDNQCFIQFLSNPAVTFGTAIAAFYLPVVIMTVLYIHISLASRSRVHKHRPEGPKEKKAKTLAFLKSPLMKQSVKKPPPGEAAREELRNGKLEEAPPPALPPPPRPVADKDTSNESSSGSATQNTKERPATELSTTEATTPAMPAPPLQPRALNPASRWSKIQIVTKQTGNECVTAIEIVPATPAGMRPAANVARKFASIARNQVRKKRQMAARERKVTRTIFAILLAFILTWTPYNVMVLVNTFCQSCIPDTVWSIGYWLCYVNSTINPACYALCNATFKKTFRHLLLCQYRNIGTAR

Measured: Ki

Chain of Muscarinic acetylcholine receptor M3 (P08483 whole entry): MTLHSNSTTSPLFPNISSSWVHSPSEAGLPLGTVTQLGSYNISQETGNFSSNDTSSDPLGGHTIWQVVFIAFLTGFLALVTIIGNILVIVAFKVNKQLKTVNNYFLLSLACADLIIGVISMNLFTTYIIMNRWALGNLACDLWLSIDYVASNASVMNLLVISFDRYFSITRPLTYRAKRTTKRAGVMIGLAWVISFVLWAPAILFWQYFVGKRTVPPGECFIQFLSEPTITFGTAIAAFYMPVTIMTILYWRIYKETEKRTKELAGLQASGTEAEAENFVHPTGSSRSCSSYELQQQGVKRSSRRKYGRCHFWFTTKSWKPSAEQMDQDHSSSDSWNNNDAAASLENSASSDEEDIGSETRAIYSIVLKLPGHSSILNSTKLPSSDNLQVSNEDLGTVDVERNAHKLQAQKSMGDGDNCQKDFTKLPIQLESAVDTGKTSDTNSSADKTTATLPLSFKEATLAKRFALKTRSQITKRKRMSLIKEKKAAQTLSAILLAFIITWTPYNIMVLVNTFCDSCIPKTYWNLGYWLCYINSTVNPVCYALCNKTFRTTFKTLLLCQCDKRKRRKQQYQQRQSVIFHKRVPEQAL

CC(CCC(=O)NCCS(=O)(=O)O)C1CCC2C3CCC4CC(O)CCC4(C)C3CCC12C (stereo unspecified) [NSC_10595]
> 10 µM: [1] | [2]

CC(CCC(=O)NCC(=O)O)C1CCC2C3CCC4CC(O)CCC4(C)C3CCC12C (stereo unspecified) [CAS_115245]
> 10 µM: all assays above

Source: BindingDB's records for doi:10.1124/jpet.102.036376 (University of Arkansas, 2002)
